Reference: patent US20260284208A1, “SYSTEM” (Oxford University Innovation Limited, priority 2023, published 2026)

Columns and labels:
[1] = target: wild type IKZF3 (Homo sapiens, UniProt Q96SW2+Q9UKT9); test: GFP degradation assay (plate reader), WT; assay type: cell-based; settings: background autofluorescence subtracted
Experimental: (§1) Jurkat cells were added to 96 well U-bottom assay plates (Falcon) at 1×10^5 cells per well and treated with compounds for 18 hours at 37° C. and 5% CO2. Cells were stained with 1 μg/mL DAPI (ThermoFisher) and acquired on a Cytoflex S (Beckman Coulter). Data was analysed using FlowJo 10.8.1 (BD).
(§2) The compounds were assessed in GFP degradation assays as described above. (Data shown in FIG. 19 was obtained using a plate reader leading to a degree of background autofluorescence). The data in FIG. 19 indicates the inflection point—at which range of concentrations the degradation occurs—for each compound. DC50 and selectivity values (following subtraction of background autofluorescence) were acquired. Compound C01 degrades both wild type IKZF3 and WEIS mutant (Q147W N149E Q150I).

[2] = target: WEIS mutant (Q147W N149E Q150I) (Homo sapiens, UniProt Q96SW2+Q9UKT9, N149E/Q147W/Q150I); test: GFP degradation assay (plate reader), WEIS; assay type: cell-based; settings: background autofluorescence subtracted
WEIS mutant (Q147W N149E Q150I), sequence (Q9UKT9 130-189 Q147W/N149E/Q150I): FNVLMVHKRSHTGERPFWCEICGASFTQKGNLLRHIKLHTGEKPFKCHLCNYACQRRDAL
WEIS mutant (Q147W N149E Q150I), sequence (Q96SW2 whole entry): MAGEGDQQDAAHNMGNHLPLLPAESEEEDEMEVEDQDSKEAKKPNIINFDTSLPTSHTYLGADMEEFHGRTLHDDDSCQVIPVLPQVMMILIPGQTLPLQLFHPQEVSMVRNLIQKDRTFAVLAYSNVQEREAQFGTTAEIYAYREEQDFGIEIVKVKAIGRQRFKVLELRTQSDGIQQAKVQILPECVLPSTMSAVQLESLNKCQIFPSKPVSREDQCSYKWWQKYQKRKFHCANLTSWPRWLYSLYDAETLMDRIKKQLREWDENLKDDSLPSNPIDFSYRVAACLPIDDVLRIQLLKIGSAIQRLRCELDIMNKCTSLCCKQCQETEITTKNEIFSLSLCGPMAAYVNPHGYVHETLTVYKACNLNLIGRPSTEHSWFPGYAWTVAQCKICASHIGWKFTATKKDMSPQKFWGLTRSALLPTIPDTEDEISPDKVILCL
Experimental: as §1, §2

[3] = system: library of 8,380 IKZF3 degrons (ZF-eGFP/mCherry reporter) in Jurkat cells; test: Pooled library screen (FACS, NGS, limma voom LogFC of positive vs negative read counts); assay type: cell-based, human; settings: WT ZF sequence
Experimental: A library of 8,380 IKZF3 degrons was cloned into pLVX-Sprout to create the eGFP/mCherry protein degradation reporter plasmid pool. A lentivirus pool was then generated using the Lenti-X lentiviral vector production method.
Jurkat cells were transduced at a multiplicity of infection of <0.3 with the lentivirus vector library in order to maximise the number of cells with a single integration. Transductions were carried out in 6 well TC-treated cell culture dishes (Falcon) with 3×10^6 cells per well. Cells were incubated for 2 days at 37° C. and 5% CO2 before the supernatant was removed and replaced with fresh media. 6 days post-transduction, mCherry+ cells were isolated via FACS using the FACS Aria Fusion (BD) in a buffer containing PBS (Gibco), 2 mM EDTA (Gibco), 25 mM HEPES (Sigma) and 1% BSA (Sigma). 8 days later, cells were treated with DMSO or a thalidomide analog for 18 hours at 37° C. and 5% CO2. mCherry+GFPlow and NOT(mCherry+GFPlow) cells were sorted by FACS using the FACS Aria Fusion (BD). DMSO treated cells were used to set the mCherry+GFPlow gate and dead cells were excluded from sorting by staining cells with 1 μg/mL DAPI (ThermoFisher). gDNA was isolated using the Maxwell RSC 48 (Promega). gDNA from cells that were unsorted and untreated were also isolated to determine the library representation on the day of compound treatment. Throughout the screen >600× coverage of the library was maintained. 3 biological replicates were carried out with a new transduction taking place each time.
A two-step PCR was used where the first PCR (PCR1) amplified the integrated degron sequence from gDNA and the second PCR (PCR2) added Illumina adaptors and barcodes to permit multiplexing. See Supp F for PCR1 and PCR2 primers. Q5 Hot Start High-Fidelity 2× Master Mix (New England Biolabs) was used for both PCRs. Sufficient gDNA was amplified in PCR1 in order to maintain >600× coverage and amplicons were purified using solid phase reversible immobilization (SPRI) beads (Beckman Coulter). Purified PCR1 products were analysed on the Tapestation 4200 (Agilent) to confirm purity prior to proceeding to PCR2. Sufficient PCR1 product was amplified in PCR2 in order to maintain >600× coverage and amplicons were run on a 2% agarose TAE gel. Target bands were excised and purified using the NucleoSpin Gel and PCR Clean-up Kit (Machery Nagel). Amplicons were analysed on the Tapestation 4200 and quantified using Qubit dsDNA HS kit (ThermoFisher). PCR products were pooled and sequenced as paired-reads on the NovaSeq (Illumina) using a SP2 200 cycles kit (Illumina).
Count distributions, percentage of read mapping, library coverage and replicate correlation per sample were assessed for QC purposes.
To carry out the library screen, we used the same plasmid construct as in our earlier flow cytometry assays, but pooling all 8,380 mutants together into one Jurkat population, ensuring a copy number of one plasmid per cell (FIG. 4B). […] These GFP-negative cells were then separated from the remaining GFP-positive population using fluorescence activated cell sorting (FACS). These two populations were then sequenced and the relative abundance of every mutant in both populations compared to provide a log FC value for each mutant sequence. This value indicated how frequently a sequence is observed in the GFP-negative population relative to the GFP-positive population, and therefore how effective a degron it is for that particular IMID compound.

wild type IKZF3, sequence (Q9UKT9 130-189): as the sequence (Q9UKT9 130-189 Q147W/N149E/Q150I) above, with W18Q, E20N, I21Q counted along it
wild type IKZF3, sequence (Q96SW2 whole entry): as the sequence (Q96SW2 whole entry) above

Row | SMILES | degradation of wild type IKZF3 [1] | degradation of WEIS mutant [2] | position of the WT sequence in the volcano plot of the library screen [3]
1 | CN1CCN(c2ccc3c(c2)CN(C2CCC(=O)NC2=O)C3=O)CC1 (stereo not drawn) [C01] | degrades | degrades | –
2 | O=C1CCC(N2C(=O)c3ccccc3C2=O)C(=O)N1 (stereo not drawn) [thalidomide, reference compound] | – | – | close to the ‘hits’ region
